Tests used:
[1] = target: Sphingosine 1-phosphate receptor 3 (Homo sapiens, UniProt Q99500); test: Receptor [35S] GTPgammaS Binding Assays: Compounds were loaded in a 384 Falcon v-bottom plate (0.5 μL/well in a 11 point, 3-fold dilution). Membranes prepared from S1P1/CHO cells or EDG3-Gal5-bla HEK293T cells (EDG3 equivalent S1P3) were added to the compound plate (40 μL/well, final protein 3 μg/well) with MULTIDROP®. [35S]GTP (1250 Ci/mmol, Perkin Elmer) was diluted in assay buffer: 20 mM HEPES, pH7.5, 10 mM MgCl2, 150 mM NaCl, 1 mM EGTA(ethylene glycol tetraacetic acid), 1 mM DTT (dithiothreitol), 10 μM GDP, 0.1% fatty acid free BSA, and 10 μg/ml Saponin to 0.4 nM. 40 μL of the [35S] GTP solution was added to the compound plate with a final concentration of 0.2 nM. The reaction was kept at room temperature for 45 min. At the end of incubation, all the mixtures in the compound plate were transferred to Millipore 384-well FB filter plates via the VELOCITY11® Vprep liquid handler. The filter plate was washed with water 4 times by using the manifold Embla plate washer and dried at 60° C. for 45 min. MicroScint 20 scintillation fluid (30 μL) was added to each well for counting on the Packard TOPCOUNT®. EC50 is defined as the agonist concentration that corresponds to 50% of the Ymax (maximal response) obtained for each individual compound tested.A smaller value for GTPγS S1P1 EC50 value indicated greater activity for the compound in the GTPγS S1P1 binding assay. […]
[2] = target: Sphingosine 1-phosphate receptor 1 (Homo sapiens, UniProt P21453); test: S1P1 Binding Assay: Membranes were prepared from CHO cells expressing human S1P1. Cells pellets (1×10^9 cells/pellet) were suspended in buffer containing 20 mM HEPES (4-(2-hydroxyethyl)-1-piperazineethanesulfonic acid), pH 7.5, 50 mM NaCl, 2 mM EDTA (Ethylenediamine tetraacetic acid) and Protease Inhibitor cocktail (Roche), and disrupted on ice using the Polytron homogenizer. The homogenate was centrifuged at 20,000 rpm (48,000 g) and the supernatant was discarded. The membrane pellets were resuspended in buffer containing 50 mM HEPES, pH 7.5, 100 mM NaCl, 1 mM MgCl2, 2 mM EDTA and stored in aliquots at −80° C. after protein concentration determination.Membranes (2 μg/well) and 0.03 nM final concentration of 33P-S1P ligand (1 mCi/ml, Perkin Elmer or American Radiolabeled Chemicals) diluted in assay buffer (50 mM HEPES, pH7.4, 5 mM MgCl2, 1 mM CaCl2, 0.5% fatty acid free BSA(bovine serum albumin), 1 mM NaF) were added to the compound plates (384 Falcon v-bottom plate (0.5 μl/well in a 11 point, 3-fold dilution). Binding was performed for 45 minutes at room temperature, terminated by collecting the membranes onto 384-well Millipore FB filter plates, and radioactivity was measured by TOPCOUNT®. The competition data of the test compounds over a range of concentrations was plotted as percentage inhibition of radioligand specific binding. […]
Sequence of Sphingosine 1-phosphate receptor 1 (P21453 whole entry): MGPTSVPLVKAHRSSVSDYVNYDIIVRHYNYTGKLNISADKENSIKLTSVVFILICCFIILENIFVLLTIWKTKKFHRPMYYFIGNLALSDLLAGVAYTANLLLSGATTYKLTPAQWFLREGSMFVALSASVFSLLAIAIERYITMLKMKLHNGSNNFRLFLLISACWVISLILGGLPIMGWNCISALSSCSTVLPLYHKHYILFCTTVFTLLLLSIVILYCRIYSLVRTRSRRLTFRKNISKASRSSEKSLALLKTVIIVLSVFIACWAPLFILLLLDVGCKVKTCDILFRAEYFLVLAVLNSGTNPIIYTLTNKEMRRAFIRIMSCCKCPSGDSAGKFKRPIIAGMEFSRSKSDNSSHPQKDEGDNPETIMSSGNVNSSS

Sequence of Sphingosine 1-phosphate receptor 3 (Q99500 whole entry): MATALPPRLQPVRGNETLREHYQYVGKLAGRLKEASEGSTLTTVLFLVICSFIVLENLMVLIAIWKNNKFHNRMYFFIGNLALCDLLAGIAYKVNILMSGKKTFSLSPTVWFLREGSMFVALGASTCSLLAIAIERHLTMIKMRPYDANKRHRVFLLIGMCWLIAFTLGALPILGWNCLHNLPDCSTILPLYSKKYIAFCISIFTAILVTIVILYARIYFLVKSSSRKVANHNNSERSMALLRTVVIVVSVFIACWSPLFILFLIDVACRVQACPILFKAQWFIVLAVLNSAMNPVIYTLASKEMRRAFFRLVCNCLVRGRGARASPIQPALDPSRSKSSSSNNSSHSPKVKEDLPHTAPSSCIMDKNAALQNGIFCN

CCCCCCCCc1cc(C)c(N2CCC(N)(COP(=O)(O)O)C2=O)c(C)c1 (configuration not stated)
EC50 [1]: > 60 µM | EC50 [2]: 14.4 µM

From ChEMBL document CHEMBL5728559, “Alkylphenyl compounds” (2021)
